Data from patent US10744128B2, “6-(5-membered heteroaryl)isoquinolin-3-yl-(5-membered heteroaryl) carboxamides and preparation and use thereof” (Samumed, LLC, priority 2017, dated 2020).

Experiments:
[1] = test system: Tau phosphorylation at Ser396 (pSer396); experiment: Tau phosphorylation (pSer396) assay in SH-SY5Y cells; format: cell-based, human; details: Homo sapiens; SH-SY5Y cells, overnight (16-18 h), pSer396 Tau ELISA; read-out: EC50
Experimental: Two days before treatment, cells were seeded onto 96 well plates at 5×10^4 cells/well.
The above synthesized compounds were screened using the cell assay procedure to assess decrease Tau phosphorylation at Ser396 (pSer396) described below.
Cells were lysed with RIPA buffer complemented with phosphatase and protease inhibitors then lysates were spun down at 12,000 g for 10 min to remove any cellular debris.

IL-6 = IL-6 inhibition in LPS-stimulated human peripheral blood mononuclear cells (HTRF); format: cell-based; details: Homo sapiens, PBMC; for EC50: huPBMCs, LPS 50 ng/mL, 22 hours, IL-6 HTRF
Method in brief: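 Fresh human PBMCs at 1×10e6 cells/mL in 1% FBS-RPMI were pretreated with compound for 2 h, then stimulated with 50 ng/mL E. coli 0111:B4 LPS for a further 22 h at 37 °C. IL-6 was measured by HTRF (665/620 nm ratio). Values were normalized to DMSO and fitted 4-parameter for EC50.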

[2] = test system: SW480 colon carcinoma cells; experiment: Cell viability assay (CellTiter-Glo) in SW480 cells; format: cell-based, human; details: Homo sapiens, 96 h, four days
recombinant GSK3β kinase = recombinant GSK3β kinase (Homo sapiens (Human), UniProt P49841); experiment: GSK3β kinase assay (Ser/Thr 09 peptide Z-lyte, FRET); format: biochemical; details: GSK3β kinase, 46 μM ATP, one hour; method calls values IC50
Chain of recombinant GSK3β kinase (P49841 whole entry): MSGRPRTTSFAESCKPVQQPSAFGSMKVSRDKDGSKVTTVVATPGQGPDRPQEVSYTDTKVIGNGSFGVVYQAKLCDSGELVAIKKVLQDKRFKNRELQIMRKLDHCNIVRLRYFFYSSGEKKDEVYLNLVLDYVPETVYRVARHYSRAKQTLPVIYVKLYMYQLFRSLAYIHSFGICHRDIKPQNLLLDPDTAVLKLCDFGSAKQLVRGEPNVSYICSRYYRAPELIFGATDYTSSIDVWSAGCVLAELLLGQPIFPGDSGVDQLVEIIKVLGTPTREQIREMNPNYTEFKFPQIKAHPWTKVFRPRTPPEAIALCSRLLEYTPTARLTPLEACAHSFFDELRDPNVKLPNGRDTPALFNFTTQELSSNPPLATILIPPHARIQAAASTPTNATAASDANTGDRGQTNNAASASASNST

[3] = test system: primary human fibroblasts derived from IPF patients (LL29 cells), α-smooth muscle actin; experiment: Inhibition of fibrotic process: αSMA in TGF-β1 treated LL29 fibroblasts; format: cell-based; details: Homo sapiens, Fibroblast, 96 h; LL29 cells, TGF-β1 20 ng/mL, 4 days, % cells positive for αSMA
Method in brief: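 LL29 fibroblasts from IPF patients, in F12 medium with 1% FBS, treated with TGF-β1 plus compound; TGF-β1 with DMSO as positive control, DMSO alone as negative control. After 4 days' incubation, SYTOX green nucleic acid stain added at 1 μM final, 30 min at room temperature.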

[4] = test system: Wnt-responsive promoter (Sp5-Luc reporter) in SW480 colon carcinoma cells; experiment: Sp5-Luc reporter gene screening assay for Wnt activity in SW480 cells; format: cell-based, human; details: Homo sapiens, 36 to 48 hours, luminescence
Method in brief: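 SW480 cells stably carrying a luciferase reporter under an Sp5 promoter with eight TCF/LEF sites, plated at 4,000 cells/well in DMEM with 1% FBS and incubated 36 to 48 hours at 37° C. Luminescence normalized to DMSO-only cells; EC50 fitted by four-parameter nonlinear regression.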

[5] = molecular target: recombinant DYRK1A kinase (Homo sapiens (Human), UniProt Q13627); experiment: DYRK1A kinase assay (Ser/Thr 18 peptide Z-lyte, FRET); details: DYRK1A kinase, 30 μM ATP, one hour; method calls values IC50

Structure (SMILES) | EC50 [1] | EC50 (IL-6) | EC50 [2] | EC50 (recombinant GSK3β kinase) | EC50 [3] | EC50 [4] | EC50 [5] | inhibition at 10 µM (IL-6; read-out: percent inhibition at 10 μM)
Cn1cc(-c2ccc3cnc(NC(=O)c4cnn(C5CCNCC5)c4)cc3c2)cn1 [Compound 2, N-(6-(1-methyl-1H-pyrazol-4-yl)isoquinolin-3-yl)-1-(piperidin-4-yl)-1H-pyrazole-4-carboxamide] | 99 nM | 114 nM | 38 nM | 1040 nM | 93 nM | 27 nM | 2 nM | 
CC(C)N1CCC(n2cc(C(=O)Nc3cc4cc(-c5cnn(C)c5)ccc4cn3)cn2)CC1 [Compound 8, 1-(1-isopropylpiperidin-4-yl)-N-(6-(1-methyl-1H-pyrazol-4-yl)isoquinolin-3-yl)-1H-pyrazole-4-carboxamide] | 27 nM | 504 nM | 59 nM | 780 nM | 72 nM | 11 nM | 1 nM | 
CC(C)OC(=O)N1CCC(n2cc(C(=O)Nc3cc4cc(-c5cnn(C)c5)ccc4cn3)cn2)CC1 [Compound 10, isopropyl 4-(4-((6-(1-methyl-1H-pyrazol-4-yl)isoquinolin-3-yl)carbamoyl)-1H-pyrazol-1-yl)piperidine-1-carboxylate] | 64 nM | 277 nM | 105 nM | 4180 nM | 62 nM | 55 nM | 3 nM | 
Cn1cc(-c2ccc3cnc(NC(=O)c4csc(C5CCN(CCF)CC5)n4)cc3c2)cn1 [Compound 27, 2-(1-(2-Fluoroethyl)piperidin-4-yl)-N-(6-(1-methyl-1H-pyrazol-4-yl)isoquinolin-3-yl)thiazole-4-carboxamide] | > 10000 nM | > 10000 nM | 3650 nM | 3600 nM | 2520 nM | 300 nM | 14 nM | 34.5%
Cc1ncc(C(=O)Nc2cc3cc(-c4cnn(C5CCN(C)CC5)c4)ccc3cn2)s1 [Compound 28, 2-Methyl-N-(6-(1-(1-methylpiperidin-4-yl)-1H-pyrazol-4-yl)isoquinolin-3-yl)thiazole-5-carboxamide] | 2100 nM | 9980 nM | 340 nM | > 10000 nM | 381 nM | 1160 nM | 24 nM | 
Cc1ncc(C(=O)Nc2cc3cc(-c4cnc(C)n4C)ccc3cn2)s1 [Compound 62, N-(6-(1,2-Dimethyl-1H-imidazol-5-yl)isoquinolin-3-yl)-2-methylthiazole-5-carboxamide] | 193 nM | 2760 nM | 23 nM | 450 nM | 644 nM | 110 nM | 2 nM | 
Cc1ncc(-c2ccc3cnc(NC(=O)Cn4ccnc4)cc3c2)o1 [Compound 64, 2-(1H-imidazol-1-yl)-N-(6-(2-methyloxazol-5-yl)isoquinolin-3-yl)acetamide] | 85 nM | 427 nM | 836 nM | 9 nM | 187 nM | 1150 nM | 4 nM | 
